Measurements published in patent US4120947A, “Xanthine compounds and method of treating bronchospastic and allergic diseases” (priority 1976, dated 1978).
Read-outs that look alike come from different tables or passages of the source.

Key:
[1] = test system: histamine-induced bronchoconstriction in the guinea pig; assay: BD: bronchodilator activity against histamine-induced bronchoconstriction in the guinea pig; conditions: for inhibition in vivo at 10 mg/kg / inhibition in vivo at 20 mg/kg / inhibition in vivo at 40 mg/kg / inhibition in vivo at 80 mg/kg / inhibition in vivo at 15 mg/kg / inhibition in vivo at 150 mg/kg / inhibition in vivo at 100 mg/kg / inhibition in vivo at 60 mg/kg: Cavia porcellus, po, read-out: BD (guinea pig), % protection; for lethal / bronchodilator effectiveness, in words / onset and duration of action, in words: guinea pig; for bronchodilator effectiveness, in words / onset and duration of action, in words: comparison with corresponding compound
Text: BD Bronchodilator activity evaluated against histamine-induced bronchoconstriction in the guinea pig, and expressed as % protection at the stated time interval (in minutes and hours) post-drug against histamine agonist. Doses are expressed in milligrams per kilogram of body weight (mpk) per os (po) or intraperitoneally (ip).
A modification of the method of Siegmund. O.H., et al., J. Pharmacol. and Exp. Therap. 90:254-9, 1947, is used. Healthy guinea pigs weighing from 250 to 300 grams are placed four at a time and separated by wiring screening in an 11 liter plastic chamber, at the time of peak activity following drug administration. The challenge consists of histamine diphosphate (1% solution) aerosolized in a de Vilbiss -40 nebulizer at 200 mm Hg. Times for prostration are recorded.
Per cent protection is calculated as follows: [formula] wherein the times are measured in seconds.
In interpreting the BD data it should be noted that a dose giving less than 40-50% protection is not considered useful. Differences in percent protection of less than 10% are probably not significant.

[2] = test system: antigen-induced bronchconstriction in rats sensitized with N. brasliensis; assay: AA: antiallergy (anti-anaphylactic) activity against antigen-induced bronchoconstriction in sensitized rats
Text: The animals are subdivided into control and test groups. Test animals receive a drug either orally, intraperitoneally or intravenously and are challenged with intravenous antigen at fixed time intervals after dosing. Antigen-induced increases in tracheal pressure are monitored and reflect the extent of bronchoconstriction.

[3] = test system: guinea pig tracheal chain preparation; assay: SP: spasmolytic activity in vitro, guinea pig tracheal chain preparation; conditions: Cavia porcellus, read-out: SP in vitro C, molar concentration required to produce maximum relaxation
Text: SP Spasmolytic activity evaluated in vitro using guinea pig tracheal chain preparation, and expressed as the molar (M) concentration required to produce maximum relaxation. The method used in that of Castillo and de Beer, J. Pharmac. Expt. Therap. 90, 104, 1947.

LD50 mouse = assay type: in vivo; conditions: in vivo, po
Protocol: (§1) The LD50 was determined in three species, the mouse (male, 18-25 g), the albino rat (female, 150-200 g) and the albino guinea pig (male 180-280 g) by oral administration and in the albino rat by intraperitoneal administration. The animals are fasted overnight prior to testing. Six groups of ten animals are used; five groups are dosed with the test substance, the sixth group serves as a control and receives the drug vehicle at the highest test concentration. The compounds were administered in a 0.5% gum tragacanth solution in distilled water using a constant logarithmic increment in dose. Dose volume ranged from […].
(§2) The animals were housed five per cage (rat and guinea pig) or ten per cage (mouse) with free access to food and water. The number of dead animals was recorded daily for five consecutive days. The total mortality per group of ten for each dose level was recorded and LD50 with Confidence Limits calculated according to the method described by Weil, C.

in vivo = assay: in vivo
Protocol: as §1, §2

[4] = test system: passive cutaneous anaphylaxis in the rat; assay: PCA: passive cutaneous anaphylaxis in the rat; assay type: in vivo
Protocol: PCA Antianaphylactic activity against passive cutaneous anaphylaxis in the rat, expressed as % protection against antigen-induced wheal formation.
The method used is that of Ogilvie, B. M., Immunology 12, 113-131 (1967). Reaginic […] antibodies develope in the rat following subcutaneous injection of Nippostrongylus brasiliensis larvae. Antisera, collected 28 days later are injected subcutaneously into new rats.

[5] = test system: histamine-induced bronchoconstriction in the dog; assay: CP: cardiopulmonary activity against histamine-induced bronchoconstriction in the dog; assay type: in vivo; conditions: histamine challenge
Text: Pretreatment with bronchodilator drugs aims to block the bronchospastic response to histamine. Each dog serves as its own control.

[6] = Rattus norvegicus, ip, 1 h, read-out: AA (rat), % protection
[7] = Rattus norvegicus, po, 1 h, read-out: AA (rat), % protection

CCOC(=O)n1c(C)nc2c1c(=O)n(C)c(=O)n2CC(C)CC (racemic) [Compound 4477, DL-1,8-dimethyl-3-(2-methyl-1-butyl)xanthine-7-carboxylic acid, ethyl ester]
inhibition in vivo at 10 mg/kg ([1]; 0.5 h): 47% | inhibition in vivo at 10 mg/kg ([1]; 1 h): 87% | inhibition in vivo at 10 mg/kg ([1]; 6 h): 50%

CCCOC(=O)n1c(C)nc2c1c(=O)n(C)c(=O)n2CC(C)CC (racemic) [Compound 4488, DL-1,8-dimethyl-3-(2-methyl-1-butyl)xanthine-7-carboxylic acid, n-propyl ester]
inhibition in vivo at 10 mg/kg ([1]; 1 h): 24% | inhibition in vivo at 20 mg/kg ([1]; 1 h): 78% | inhibition in vivo at 40 mg/kg ([1]; 1 h): 100% | inhibition in vivo at 10 mg/kg ([1]; 6 h): 44% | inhibition in vivo at 20 mg/kg ([1]; 6 h): 68% | inhibition in vivo at 40 mg/kg ([1]; 6 h): 89% | lethal ([1]; 80 mpK po): 1/4

CCc1nc2c(c(=O)n(C)c(=O)n2CC(C)CC)n1C(=O)OC (racemic) [Compound 4491, DL-1-methyl-3-(2-methyl-1-butyl)-8-ethyl-xanthine-7-carboxylic acid, methyl ester]
inhibition in vivo at 10 mg/kg ([1]; 1 h): 25% | inhibition in vivo at 40 mg/kg ([1]; 1 h): 52%

CCC(C)Cn1c(=O)n(CC)c(=O)c2c1nc(C)n2C(=O)OC (racemic) [Compound 4494, DL-1-ethyl-3-(2-methyl-1-butyl)-8-methylxanthine-7-carboxylic acid, methyl ester]
inhibition in vivo at 10 mg/kg ([1]; 1 h): 0% | inhibition in vivo at 40 mg/kg ([1]; 1 h): 9% | inhibition in vivo at 10 mg/kg ([1]; 6 h): 49% | inhibition in vivo at 40 mg/kg ([1]; 6 h): 80% | lethal ([1]; 80 mpK po): 2/2

CCc1nc2c(c(=O)n(CC)c(=O)n2CC(C)CC)n1C(=O)OC (racemic) [Compound 4498, DL-1,8-diethyl-3-(2-methyl-1-butyl)xanthine-7-carboxylic acid, methyl ester]
inhibition in vivo at 40 mg/kg ([1]; 1 h): 15% | inhibition in vivo at 80 mg/kg ([1]; 1 h): 63% | inhibition in vivo at 40 mg/kg ([1]; 6 h): 38% | inhibition in vivo at 80 mg/kg ([1]; 6 h): 79%

CCCC(C)Cn1c(=O)n(C)c(=O)c2c1nc(C)n2C(=O)OC (racemic) [Compound 4515, DL-1,8-dimethyl-3-(2-methyl-1-pentyl)xanthine-7-carboxylic acid, methyl ester]
inhibition in vivo at 20 mg/kg ([1]; 1 h): 7% | inhibition in vivo at 40 mg/kg ([1]; 1 h): 100%

CC(C)Cn1c(=O)n(C)c(=O)c2[nH]cnc21 [Compound 4258, 1-methyl-3-(isobutyl)xanthine]
AA (rat), toxicity ([2]; 2.0 mpK ip, 1h): tox | inhibition in vivo at […] [2, 6]: 79% | inhibition in vivo at 15 mg/kg ([1]; 0.5 h): 45% | inhibition in vivo at 15 mg/kg ([1]; 1 h): 75% | lethal ([1]; 25 mpK po): 2/4

COC(=O)n1cnc2c1c(=O)n(C)c(=O)n2C [Compound 4260, 1,3-dimethylxanthine-7-carboxylic ester, methyl ester]
EC (maximum relaxation) [3]: 50000 µM | inhibition in vivo at 75 mg/kg [2, 6]: 82% | inhibition in vivo at 80 mg/kg ([1]; 0.5 h): 99% | inhibition in vivo at 80 mg/kg ([1]; 1 h): 100% | inhibition in vivo at 80 mg/kg ([1]; 2 h): 86% | inhibition in vivo at 80 mg/kg ([1]; 4 h): 95% | inhibition in vivo at 80 mg/kg ([1]; 6 h): 0% | bronchodilator effectiveness, in words [1]: clearly superior to theophylline at the same dose (80 mpK) | onset and duration of action, in words [1]: more potent, with both faster onset and longer duration of action | bronchodilator effectiveness, in words ([1]; listed as 1,3-dimethyl-7-carbomethoxyxanthine): significantly more effective than theophylline itself

COC(=O)n1cnc2c1c(=O)n(C)c(=O)n2CC(C)C [Compound 4274, 1-methyl-3-(isobutyl)xanthine-7-carboxylic acid, methyl ester]
EC (maximum relaxation) [3]: 500 µM | inhibition in vivo at 5 mg/kg [2, 6]: 74% | inhibition in vivo at 15 mg/kg ([1]; 0.5 h): 92% | inhibition in vivo at 15 mg/kg ([1]; 1 h): 87% | inhibition in vivo at 15 mg/kg ([1]; 2 h): 64% | inhibition in vivo at 15 mg/kg ([1]; 4 h): 18% | lethal ([1]; 40 mpK po): 1/6 | bronchodilator effectiveness, in words [1]: greater protection than 4258 at equal doses

Cc1nc2c([nH]1)c(=O)n(C)c(=O)n2C [Compound 4296, 1,3,8-trimethylxanthine]
inhibition in vivo at 75 mg/kg [2, 6]: 49% | inhibition in vivo at 150 mg/kg ([1]; 0.5 h): 68% | inhibition in vivo at 100 mg/kg ([1]; 1 h): 53% | inhibition in vivo at 150 mg/kg ([1]; 1 h): 80% | inhibition in vivo at 150 mg/kg ([1]; 2 h): 71% | inhibition in vivo at 100 mg/kg ([1]; 4 h): 45% | inhibition in vivo at 150 mg/kg ([1]; 4 h): 79% | inhibition in vivo at 100 mg/kg ([1]; 6 h): 43% | inhibition in vivo at 150 mg/kg ([1]; 6 h): 86% | inhibition in vivo at 100 mg/kg ([1]; 10 h): 23% | inhibition in vivo at 150 mg/kg ([1]; 10 h): 85%

CCCC(C)Cn1c(=O)n(C)c(=O)c2c1ncn2C(=O)OC (stereo not drawn) [Compound 4377]
inhibition in vivo at 20 mg/kg ([1]; 1 h): 64% | inhibition in vivo at 80 mg/kg ([1]; 1 h): 72% | inhibition in vivo at 80 mg/kg ([1]; 4 h): 0%

COC(=O)n1c(C)nc2c1c(=O)n(C)c(=O)n2C [Compound 4378, 1,3,8-trimethylxanthine-7-carboxylic acid, methyl ester]
EC (maximum relaxation) [3]: 100000 µM | inhibition in vivo at 75 mg/kg [2, 6]: 54% | inhibition in vivo at 60 mg/kg ([1]; 1 h): 96% | inhibition in vivo at 60 mg/kg ([1]; 4 h): 95% | inhibition in vivo at 60 mg/kg ([1]; 6 h): 89% | onset and duration of action, in words [1]: effective at lower doses and for longer duration

CCC(C)Cn1c(=O)n(C)c(=O)c2c1ncn2C(=O)OC (stereo not drawn) [Compound 4380, 1-methyl-3-(2-methyl-1-butyl)xanthine-7-carboxylic acid, methyl ester]
EC (maximum relaxation) [3]: 1430 µM | inhibition in vivo at 5 mg/kg [2, 7]: 66% | BD (guinea pig), % protection ([1]; 20 mpK po, 1h): 64% | inhibition in vivo at 20 mg/kg ([1]; 1 h): 64% | inhibition in vivo at 40 mg/kg ([1]; 1 h): 99% | inhibition in vivo at 40 mg/kg ([1]; 4 h): 57% | inhibition in vivo at 40 mg/kg ([1]; 6 h): 12%

CCC(C)Cn1c(=O)n(C)c(=O)c2[nH]c(C)nc21 (stereo not drawn) [Compound 4383, 1,8-dimethyl-3-(2-methyl-1-butyl)xanthine]
BD (guinea pig), % protection ([1]; 10 mpK po, 30'): 35% | BD (guinea pig), % protection ([1]; 20 mpK po, 4h): 100% | BD (guinea pig), % protection ([1]; 20 mpK po, 6h): 97% | inhibition in vivo at 10 mg/kg ([1]; 1 h): 63% | LD50 (LD50 mouse): 60.6 mg/kg | LD50 (in vivo; in vivo, rat, po): 887 mg/kg

COC(=O)n1c(C)nc2c1c(=O)n(C)c(=O)n2CC(C)C [Compound 4390, 1,8-dimethyl-3-isobutylxanthine-7-carboxylic acid, methyl ester]
EC (maximum relaxation) [3]: 1000 µM | inhibition in vivo at 2 mg/kg [2, 6]: 60% | inhibition in vivo at 4 mg/kg [2, 6]: 52% | inhibition in vivo at 2.5 mg/kg [2, 7]: 77% | Wheal Diameter, % Δ ([4]; 20 mg/kg po): 60% | Wheal Diameter, Response (Mean ± S.E.M.) ([4]; 20 mg/kg po): 0.74 ± 0.21 cm | Wheal Intensity, % Δ ([4]; 20 mg/kg po): 53% | Wheal Intensity, Response (Mean ± S.E.M.) ([4]; 20 mg/kg po): 1.10 ± 0.23 | antiallergy activity, in words ([4]; rat passive cutaneous anaphylaxis): effective antiallergy agents | inhibition in vivo at 10 mg/kg ([1]; 0.5 h): 49% | inhibition in vivo at 10 mg/kg ([1]; 1 h): 86% | inhibition in vivo at 10 mg/kg ([1]; 6 h): 79% | inhibition in vivo at 10 mg/kg ([1]; 10 h): 48% | lethal ([1]; 20 mpK po): 1/2 | onset and duration of action, in words [1]: effective at lower doses and for longer duration | LD50 (LD50 mouse): 27.6 mg/kg | LD50 (in vivo; guinea pig, po): 25.2 mg/kg | LD50 (in vivo; in vivo, rat, ip): 9.1 mg/kg | LD50 (in vivo; in vivo, rat, po): 33.5 mg/kg | cardiopulmonary / bronchodilator activity in the dog, in words [5]: significantly reduce the decrease in pulmonary compliance and increase in pulmonary resistance due to histamine administration

COC(=O)n1c(C)nc2c1c(=O)n(C)c(=O)n2CCC(C)C [Compound 4505, 1,8-dimethyl-3-isopentylxanthine-7-carboxylic acid, methyl ester]
lethal ([1]; 80 mpK po): 3/5

CCCCCn1c(=O)n(C)c(=O)c2c1nc(C)n2C(=O)OC [Compound 4507, 1,8-dimethyl-3-n-pentylxanthine-7-carboxylic acid, methyl ester]
inhibition in vivo at 10 mg/kg ([1]; 1 h): 26% | inhibition in vivo at 20 mg/kg ([1]; 1 h): 52% | inhibition in vivo at 40 mg/kg ([1]; 1 h): 100% | inhibition in vivo at 40 mg/kg ([1]; 6 h): 63% | lethal ([1]; 80 mpK po): 2/2
